Test: Optical measurement of the dyes by UV-visible spectrophotometer
Type: physicochemical
Design: Max absorption wavelength in MeOH solution: unit: nm
Conditions: for absorption coefficient (ε) (* 10^4) / Max absorption wavelength in MeOH solution: MeOH solution
Description: Measured by UV-visible spectrophotometer, the optical properties (e.g. maximum absorption wavelength in solution) of the dyes of the preferred embodiments are tabulated in Table 1. In Table 1, dye I-2 has a maximum absorption wavelength of 489 nm in methanol solution, and dye V-2 has a maximum absorption wavelength of 493 nm in methanol solution, respectively.

[1] = at second printed absorption maximum

| absorption coefficient (ε) (* 10^4) (at first absorption maximum) | Max absorption wavelength in MeOH solution (first band) | maximum absorption wavelength in methanol solution [nm] | absorption coefficient (ε) (* 10^4) [1] | Max absorption wavelength in MeOH solution (second printed band) | SMILES |
| --- | --- | --- | --- | --- | --- |
| 15.4 * 10^4 | 489 | 489 | – | – | CC1=[N+](C)c2ccccc2C1(C)C [Dye I-2] |
| 19.1 * 10^4 | 493 | 493 | – | – | CC1=[N+](C)c2ccccc2C1(C)C [Dye V-2] |
| 8.4 * 10^4 | 495 | – | – | – | CC1=[N+](Cc2ccc(C(=O)OCC(F)(F)C(C)F)cc2)c2ccccc2C1(C)C (stereo not drawn) [I-b] |
| 6.22 * 10^4 | 460 | – | – | – | CCCC[N+](CCCC)(CCCC)CCCC [I-c] |
| 6.58 * 10^4 | 460 | – | 5.11 * 10^4 | 1067 | CCCCN(CCCC)c1ccc([N+](=C2C=CC(=[N+](c3ccc(N(CCCC)CCCC)cc3)c3ccc(N(CCCC)CCCC)cc3)C=C2)c2ccc(N(CCCC)CCCC)cc2)cc1 [I-d] |
| 7.58 * 10^4 | 471 | – | – | – | CC1=[N+](Cc2ccc(C(=O)OCC(F)(F)C(F)F)cc2)c2ccccc2C1(C)C [I-e] |
| 8.08 * 10^4 | 448 | – | – | – | CC1=[N+](Cc2ccc(C(=O)OCC(F)(F)C(F)F)cc2)c2ccccc2C1(C)C [I-f] |
| 12.99 * 10^4 | 463 | – | – | – | CC1=[N+](Cc2ccc(C(=O)OCC(F)(F)C(F)F)cc2)c2ccccc2C1(C)C [I-g] |
| 18.5 * 10^4 | 462 | – | – | – | CC1=[N+](C)c2ccccc2C1(C)C [I-h] |
| 12.2 * 10^4 | 464 | – | – | – | CC1=[N+](Cc2ccc(C(=O)OCC(F)(F)C(F)F)cc2)c2ccccc2C1(C)C [I-i] |
| 12.1 * 10^4 | 459 | – | – | – | CCCC[N+]1=C(C)C(C)(C)c2ccccc21 [I-j] |
| 11.8 * 10^4 | 460 | – | – | – | CCOC(=O)CCCC[N+]1=C(C)C(C)(C)c2ccccc21 [I-k] |
| 12.5 * 10^4 | 461 | – | – | – | COS(=O)(=O)CCCC[N+]1=C(C)C(C)(C)c2ccccc21 [I-l] |
| 10.7 * 10^4 | 472 | – | – | – | Cc1sc2ccccc2[n+]1C [I-m] |
| 11.5 * 10^4 | 462 | – | – | – | CC1=[N+](C)c2ccccc2C1(C)C [I-n] |
| 6.41 * 10^4 | 461 | – | – | – | CCCC[N+](CCCC)(CCCC)CCCC [V-a] |
| 9.72 * 10^4 | 492 | – | – | – | CC1=[N+](Cc2ccc(C(=O)OCC(C)(C)C(C)C)cc2)c2ccccc2C1(C)C [V-b] |
| 6.8 * 10^4 | 461 | – | 3.8 * 10^4 | 1067 | CCCCN(CCCC)c1ccc([N+](=C2C=CC(=[N+](c3ccc(N(CCCC)CCCC)cc3)c3ccc(N(CCCC)CCCC)cc3)C=C2)c2ccc(N(CCCC)CCCC)cc2)cc1 [V-c] |
| 8.45 * 10^4 | 463 | – | – | – | CCN(CC)CC [V-d] |
| 10.35 * 10^4 | 490 | – | – | – | CC1=[N+](C)c2ccccc2C1(C)C [V-e] |

| SMILES | absorption coefficient (ε) (* 10^4) (at first absorption maximum) | Max absorption wavelength in MeOH solution (first band) | maximum absorption wavelength in methanol solution [nm] | absorption coefficient (ε) (* 10^4) [1] | Max absorption wavelength in MeOH solution (second printed band) |
| --- | --- | --- | --- | --- | --- |
| c1ccncc1 [I-a] | 4.98 * 10^4 | 460 | – | – | – |

Reference: patent US8039076B2, “Dye and recording media utilizing the same” (Industrial Technology Research Institute, priority 2006, dated 2011)
